Data reported in the METLIN SMRT retention time set (Domingo-Almenara et al. 2019).

Assay: gradient 5% acetonitrile 3 min, to 50% in 2 min, to 85% in 15 min, held 3 min, 100 µL/min
Conditions: column: Zorbax Extend-C18 2.1 x 50 mm; eluents: water / acetonitrile, 0.1% formic acid
Procedure, shortened: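 Each retention time is based on an adduct peak selected computationally and verified by manual inspection. Measurements used HPLC–quadrupole time-of-flight mass spectrometry in positive and negative ionization mode on mixtures of ~100 pure standards. Chromatography ran on a Zorbax Extend-C18 column (2.1 × 50 mm, 1.8 μm) at 100 μL/min with water and acetonitrile, each containing 0.1% formic acid, and dead and dwell volumes of 40 μL and 900 μL.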

RP-LC retention time [s]	Compound
1000	Cc1nc(-c2cn(C(C)C)c3ncccc23)sc1C(=O)NC1CCCC1
993	COc1cccc(Cc2nc(-c3cn(-c4cccc(F)c4)nn3)no2)c1
818	O=C(NC1CCCCCC1)c1ccc(CN2C(=O)C3CCCN3C(=O)c3ccccc32)cc1 (stereo not given)
684	CCC[C@H](NC(=O)/C(C#N)=C/c1cccc(Br)n1)c1ccccc1
772	O=C(CCNc1c(-c2cccc(F)c2)nc2cnccn12)NCc1cccc(Cl)c1
834	CN(CC#N)C(=O)c1nn(C)c2c1COc1ccccc1-2
1000	O=C(CSc1nc(-c2ccccc2)ns1)Nc1nc2ccccc2s1
656	COc1cccc2c(Nc3ccccc3)cc(C(=O)N3CCSCC3)nc12
755	O=c1ccc(S(=O)(=O)N2CCOCC2)cn1Cc1cccc(F)c1
610	O=C(N[C@@H]1CN(Cc2cc(Cl)ccc2F)C[C@H]1CO)C1CCC1
1160	CCc1ccc(N2CC(c3noc(-c4ccccc4C)n3)CC2=O)cc1 (stereo not given)
684	O=C([C@@H]1C[C@H](F)CN1C(=O)c1ccc(F)cc1)N1CCCCC1
785	COc1cccc(S(=O)(=O)N2CC(F)(F)C[C@H]2c2nnc(C)o2)c1
942	CCn1cc(-c2nc(CC(=O)Nc3cccc(Cl)c3)cs2)c2cccnc21
828	CC1(C(N)=O)CC(c2ccccc2)=NO1 (stereo not given)
633	CN1CCN(CCNC(=O)C2c3ccccc3C(=O)N(C3CCCC3)C2c2cccs2)CC1 (stereo not given)
1010	Cc1cc(N2CCN(c3ccccn3)CC2)n2nc(C(F)(F)F)c(-c3ccc(Cl)cc3)c2n1
693	Cc1cc(OCC(=O)N2CCN(c3ccccn3)CC2)nc2c1c(C)nn2-c1ccccc1
823	Cc1nc(-c2ccc(N3CCN(C(=O)c4cccs4)CC3)nc2)sc1C
717	Cc1ccc(Nc2nc(C(=O)NCCc3c(C)noc3C)nc3ccccc23)cc1
1140	O=C(Nc1cccc(C(F)(F)F)c1)Nc1nc(-c2ccccc2)cs1
749	O=C(NCC1CCN(c2ncccn2)CC1)c1cccc(C(F)(F)F)c1
612	CN(CCNC(=O)C1CCCN(c2ncnc3c2nc2n3CCCCC2)C1)C1CCCCC1 (stereo not given)

RP-LC retention time [s]	Compound
562	CC(C)S(=O)(=O)c1ccc(CC(=O)N2CC(c3nc4ccccc4[nH]3)C2)cc1
736	COc1cc(NC(=O)Cn2nc3cc(-c4ccccc4)nc(C)n3c2=O)cc(OC)c1
832	CC(C)CCNC(=O)C1CCN(S(=O)(=O)c2ccc3c(c2)sc(=O)n3C)CC1
692	O=C(NCC1CCCO1)c1ncoc1-c1ccccc1C(=O)N1CCCCC1 (stereo not given)
679	Cc1cc(-c2ccc(S(=O)(=O)N3CCC(C(=O)N4CCCC4)CC3)o2)n[nH]1
654	COc1ccccc1CNC(=O)Cn1c(N2CCOCC2)nc(C)cc1=O
653	COc1ccc(-n2c(N(C)C)nc3cc(C(=O)NC4CC4)sc32)cc1
1190	O=C(Nc1ccc(F)cc1)C1CCCN(c2nc3ccccc3nc2C(F)(F)F)C1 (stereo not given)
616	COc1ccc(NC(=O)Nc2ccc(-c3cn4cccnc4n3)cc2)cc1
1000	CC1Cc2ccccc2N1C(=O)C12CCC(C)(C(=O)O1)C2(C)C (stereo not given)
606	CCCNC(=O)C1CCN(c2ccc(SCC(=O)NCc3ccc4c(c3)OCO4)nn2)CC1
1190	CCCCC(CC)C(=O)Nc1nc(-c2ccc(F)cc2)cs1 (stereo not given)
852	CCC(C)NC(=O)Cn1cccc(-c2nc(-c3ccc(Cl)cc3)no2)c1=O (stereo not given)
623	Cc1cnnn1-c1ccc(C(=O)Nc2nccs2)cc1
914	COc1ccc(NC(=O)Cn2nc3cc(-c4ccccc4)nc(C)n3c2=O)cc1F
903	CCN(C(=O)C1CCCN(c2ncnc3c2nc2n3CCCCC2)C1)c1cccc(C)c1 (stereo not given)
512	NC(=O)C1CCN(c2ncnc(N)c2[N+](=O)[O-])CC1
894	COC(=O)CN1CN(c2ccc(C)cc2)c2ncccc2S1(=O)=O
1120	COc1cccc(CNC(=O)c2cc3c(-c4cccs4)nn(-c4ccccc4)c3n2C)c1
659	Cc1ccccc1NC(=O)N1CCCC(Cn2cnc3cccnc32)C1 (stereo not given)
637	Nc1nc(S(=O)(=O)Cc2ccccc2)ns1
793	Cc1ccc2c(c1)N(S(C)(=O)=O)CCC(C(=O)NCc1ccco1)O2 (stereo not given)
664	O=C(CN1CCc2[nH]c3c(F)c(Cl)ccc3c(=O)c2C1)NCc1ccccc1F

RP-LC retention time [s]	Compound
1050	COc1ccccc1-c1nc(-c2cn(-c3cccc(Cl)c3)nn2)no1
770	COC(=O)c1c(NCCc2c[nH]c3ccccc23)c2cc(F)ccc2[nH]c1=O
907	COc1cc(OC)cc(N2N=NC3C(=O)N(c4ccc(F)cc4)C(=O)C32)c1 (stereo not given)
916	O=C(NC1CCCCC1)c1csc(-c2ccc(N3CCOCC3)nc2)n1
1040	CCCOc1ccccc1Nc1nc(C(=O)OCC)nc2ccccc12
539	Cc1cccc(Nc2nc(CC(=O)N3CCC(C(N)=O)CC3)cs2)n1
951	COc1ccc(Cl)cc1Nc1ccnc2c1c(=O)n(C)c(=O)n2C
742	O=C(CCS(=O)(=O)c1ccccc1)NCc1cc(-c2ccccc2F)on1
840	CCN1C(=O)c2cccnc2Sc2cc(NC(=O)c3ccccc3C(F)(F)F)ccc21
653	CC1CCN(Cc2csc(N3CCN(C(=O)COc4ccccc4)CC3)n2)CC1
673	Cc1ccc(NC(=O)Nc2ccc3nnc(C)n3c2)cc1
727	CCN1C(=O)Cc2ccccc2C1C(=O)NCc1ccc2c(c1)OCO2 (stereo not given)
777	N#Cc1c(N)nc(N)nc1Nc1ccc(Br)cc1
640	CCn1c(=O)c(N2CCC(C(=O)NCCCN3CCCC(C)C3)CC2)nc2cccnc21 (stereo not given)
824	COc1cccc(CNC(=O)c2cn3cc(Cl)ccc3n2)c1OC
1080	Fc1ccc(-c2nc(-c3cn(-c4cccc(F)c4)nn3)no2)cc1
982	CC1CCN(C(=O)c2ccc3ccnc(N4CCN(c5ccc(Cl)cc5)CC4)c3c2)CC1
816	Cc1cccc(Nc2c(-c3cccc(O)c3)nc3cnccn23)c1C
959	O=C(Nc1cc(-c2cccs2)no1)c1cccc(F)c1
885	CCNc1nc(N2CCCC2)nc(-n2cnc(SC)n2)n1
815	CCOc1ccc(-c2ccc(=O)n(CCc3nc(-c4ccc(F)cc4)no3)n2)cc1
1090	CCN(CC)c1nc2cc(C(=O)OC)ccc2c(=O)n1-c1cc(OC)cc(OC)c1
864	CC(C)N1C(=O)c2cccnc2Sc2cc(NC(=O)c3ccccc3)ccc21

RP-LC retention time [s]	Compound
841	CC1=C(c2ccccc2)S(=O)(=O)N=C1N1CCC(NC(=O)COc2ccccc2)CC1
1080	COc1cc(C)c(C)cc1S(=O)(=O)Nc1ccc(Cl)c(N2CCCS2(=O)=O)c1
698	COC(=O)c1ccc(NC(=O)Cc2csc(Nc3ccc(S(C)(=O)=O)cc3)n2)cc1
1270	COc1ccc(N2CCN(S(=O)(=O)c3cc(-c4cc(C(F)(F)F)on4)sc3C)CC2)cc1
1180	COc1ccccc1-c1nc(Cn2nnc(-c3nc(-c4ccc(SC)cc4)no3)c2C)c(C)o1
688	Cc1nc(-c2cnccn2)n(CC(=O)Nc2ccc3c(c2)OCCO3)c(=O)c1C
862	CCCn1c(=O)c2cc(C(=O)N3CCN(c4ccc(OC)cc4)CC3)nn2c2ccccc21
702	CC(C)n1cnc(S(=O)(=O)N2CCCC(C(=O)NCc3ccccc3)C2)c1 (stereo not given)
619	O=C(O)C1CC(=O)N(c2ccc3c(c2)OCO3)C1 (stereo not given)
741	O=C(NCCc1c[nH]c2ccccc12)c1cc(-c2cccnc2)nc2ccccc12
728	COc1cccc(N2CCN(C(=O)C3CCN(c4cnc5nccnc5c4)CC3)CC2)c1
732	Cc1noc(C2CN(C(=O)Nc3ccccc3Cl)CC23CCOCC3)n1 (stereo not given)
778	COc1ccc(C(=O)Nc2nsc(-c3ccccc3)n2)cc1
639	Cc1ccc(-c2nnc(N3CCC(C(=O)N4CCN(CC(C)C)CC4)CC3)o2)cc1
673	O=S(=O)(c1cccc2c(I)cccc12)N1CCCNCC1
789	Cc1nc(-c2nc(-c3cccs3)cs2)cn1CC(=O)NCc1ccc(F)cc1
621	CC(C)Cc1ccc(S(=O)(=O)N(CCN2CCCCC2C)CC(=O)N2CCNCC2)cc1 (stereo not given)
756	Cc1cc(C)n(-c2cc(NC(C)C)ncn2)n1
603	O=C(Nc1ccc(N2CCOCC2)cc1)C1=CCN(Cc2ccc(F)cc2)CC1
1110	CCc1sc(NC(=O)Cc2ccc(F)cc2)nc1-c1ccccc1

Compound	RP-LC retention time [s]
Cc1cc(OC(C)C(=O)N2CCC3(O)CCCCC3C2)c2c3c(c(=O)oc2c1)CCC3 (stereo not given)	820
